# Results as given in patent US20130296267A1, “AGENT FOR INTRA-ARTICULAR INJECTION” (priority 2008, published 2013).
# Experiment: microscopy of dexamethasone crystals in pure saline and in the innovation
# Assay type: physicochemical
# Details: in phospholipid solution
smiles,measurement,setting,value
"CC(=O)OCC(=O)[C@@]1(O)[C@H](C)C[C@H]2[C@@H]3CCC4=CC(=O)C=C[C@]4(C)[C@@]3(F)[C@@H](O)C[C@@]21C [dexamethasone crystals, dexamethasone acetate]",crystals after twelve hours,after twelve hours,no longer detectable
same,reduction of crystals,within six hours,50%
